According to PubChem BioAssay AID330 (DTP/NCI, 2004):
Values joined by “and” are separate entries in the source; they are usually repeats but may differ in a detail not shown here. Equal entries are not always repeated. Inconclusive results and toxic doses are left out. The calls were made as follows: active = survival T/C of 150% or more; inactive = T/C below 125% in these data.

Tested on: P388 leukemia ip, CD2F1 mice, survival T/C
Assay: NCI In Vivo Anticancer Drug Screen. Data for tumor model P388 Leukemia (intraperitoneal) in CD2F1 (CDF1) mice
Conditions: endpoint: median survival time, higher = longer survival
Method in brief: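 Mice carrying the transplanted tumor received test compound or vehicle. Survival was recorded in each group, and the value is the treated-group measurement divided by that of the vehicle-treated control group.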

[1] = dose: 50.0 mg/kg/injection, schedule: Q01DX005 (ip), vehicle: saline with Tween-80
[2] = dose: 100.0 mg/kg/injection, schedule: Q01DX005 (ip), vehicle: saline with Tween-80
[3] = dose: 50.0 mg/kg/injection, schedule: Q01DX009 (ip), vehicle: saline with Tween-80
[4] = dose: 100.0 mg/kg/injection, schedule: Q01DX009 (ip), vehicle: saline with Tween-80
[5] = dose: 200.0 mg/kg/injection, schedule: Q01DX009 (ip), vehicle: saline with Tween-80

Measured: T/C

CS(=O)(=O)OCCCCOS(C)(=O)=O
inactive: dose: 3.75 mg/kg/injection, schedule: Q01DX009 (ip), vehicle: saline with Tween-80 90 % of control | dose: 3.75 mg/kg/injection, schedule: Q03HX008 (ip), vehicle: saline with Tween-80 104 % of control | dose: 3.75 mg/kg/injection, schedule: Q03HX016 (ip), vehicle: saline with Tween-80 100 % of control | dose: 3.75 mg/kg/injection, schedule: Q03HX024 (ip), vehicle: saline with Tween-80 100 % of control | dose: 7.5 mg/kg/injection, schedule: Q03HX008 (ip), vehicle: saline with Tween-80 109 % of control | dose: 7.5 mg/kg/injection, schedule: Q03HX016 (ip), vehicle: saline with Tween-80 100 % of control | dose: 7.5 mg/kg/injection, schedule: Q03HX024 (ip), vehicle: saline with Tween-80 100 % of control | dose: 15.0 mg/kg/injection, schedule: Q01DX009 (ip), vehicle: saline with Tween-80 90 % of control | dose: 15.0 mg/kg/injection, schedule: Q01DX009 (oral), vehicle: saline with Tween-80 104 % of control | dose: 15.0 mg/kg/injection, schedule: Q03HX008 (ip), vehicle: saline with Tween-80 109 % of control | dose: 15.0 mg/kg/injection, schedule: Q03HX016 (ip), vehicle: saline with Tween-80 109 % of control | dose: 15.0 mg/kg/injection, schedule: Q03HX024 (ip), vehicle: saline with Tween-80 113 % of control | dose: 25.0 mg/kg/injection, schedule: Q01DX005 (ip), vehicle: saline with Tween-80 108 % of control | dose: 30.0 mg/kg/injection, schedule: Q01DX001 (ip), vehicle: saline with Tween-80 110 % of control | dose: 30.0 mg/kg/injection, schedule: Q01DX009 (ip), vehicle: saline with Tween-80 100 % of control | dose: 30.0 mg/kg/injection, schedule: Q01DX009 (oral), vehicle: saline with Tween-80 104 % of control | dose: 30.0 mg/kg/injection, schedule: Q03HX008 (ip), vehicle: saline with Tween-80 109 % of control | dose: 30.0 mg/kg/injection, schedule: Q03HX016 (ip), vehicle: saline with Tween-80 100 % of control | dose: 30.0 mg/kg/injection, schedule: Q04DX003 (ip), vehicle: saline with Tween-80 90 % of control | dose: 30.0 mg/kg/injection, schedule: Q08DX002 (ip), vehicle: saline with Tween-80 105 % of control | [1] 113 % of control and 93 % of control | dose: 60.0 mg/kg/injection, schedule: Q01DX001 (ip), vehicle: saline with Tween-80 110 % of control | dose: 60.0 mg/kg/injection, schedule: Q01DX001 (oral), vehicle: saline with Tween-80 100 % of control | dose: 60.0 mg/kg/injection, schedule: Q08DX002 (ip), vehicle: saline with Tween-80 100 % of control | dose: 240.0 mg/kg/injection, schedule: Q08DX002 (ip), vehicle: saline with Tween-80 100 % of control

Cc1nnc(CN2CCOCC2)n1-c1ccc(Cl)cc1C(=O)c1ccccc1
inactive: dose: 25.0 mg/kg/injection, schedule: Q01DX009 (ip), vehicle: Klucel (hydroxypropylcellulose) (HPC) 86 % of control | dose: 50.0 mg/kg/injection, schedule: Q01DX009 (ip), vehicle: Klucel (hydroxypropylcellulose) (HPC) 96 % of control | dose: 100.0 mg/kg/injection, schedule: Q01DX009 (ip), vehicle: Klucel (hydroxypropylcellulose) (HPC) 105 % of control

Cc1ccc([N+]([O-])=NC#N)cc1
inactive: dose: 7.5 mg/kg/injection, schedule: Q04DX003 (ip), vehicle: Klucel (hydroxypropylcellulose) (HPC) 97 % of control | dose: 15.0 mg/kg/injection, schedule: Q04DX003 (ip), vehicle: Klucel (hydroxypropylcellulose) (HPC) 100 % of control | dose: 30.0 mg/kg/injection, schedule: Q04DX003 (ip), vehicle: Klucel (hydroxypropylcellulose) (HPC) 112 % of control

CCCC(=O)C#C[Si](C)(C)C
inactive: [1] 103 % of control | [2] 103 % of control

N=c1nccnn1O
inactive: dose: 100.0 mg/kg/injection, schedule: Q04DX003 (ip), vehicle: saline with Tween-80 100 % of control | dose: 200.0 mg/kg/injection, schedule: Q04DX003 (ip), vehicle: saline with Tween-80 99 % of control | dose: 400.0 mg/kg/injection, schedule: Q04DX003 (ip), vehicle: saline with Tween-80 100 % of control

CCCCCCCCCCCCCCCCOP(=O)([O-])OCC[N+](C)(C)C
inactive: dose: 15.0 mg/kg/injection, schedule: Q01DX005 (ip), vehicle: saline 100 % of control | dose: 30.0 mg/kg/injection, schedule: Q01DX005 (ip), vehicle: saline 100 % of control | dose: 60.0 mg/kg/injection, schedule: Q01DX005 (ip), vehicle: saline 102 % of control and 103 % of control

N#C/C(=C\Nc1ccccn1)C(=O)c1ccco1
inactive: dose: 60.0 mg/kg/injection, schedule: Q01DX005 (ip), vehicle: saline with Tween-80 91 % of control | dose: 120.0 mg/kg/injection, schedule: Q01DX005 (ip), vehicle: saline with Tween-80 100 % of control

COc1ccc2c(C)c[nH]c2c1
inactive: dose: 100.0 mg/kg/injection, schedule: Q01DX001 (ip), vehicle: saline with Tween-80 100 % of control | dose: 200.0 mg/kg/injection, schedule: Q01DX001 (ip), vehicle: saline with Tween-80 118 % of control | dose: 400.0 mg/kg/injection, schedule: Q01DX001 (ip), vehicle: saline with Tween-80 100 % of control

CC(=O)CC(=O)CCCCC(=O)O
inactive: [3] 112 % of control | [4] 112 % of control | [5] 104 % of control

C[N+](C)(C)CCC(=O)c1ccc(Cl)c(Cl)c1
inactive: dose: 3.13 mg/kg/injection, schedule: Q01DX009 (ip), vehicle: saline 108 % of control | dose: 6.25 mg/kg/injection, schedule: Q01DX009 (ip), vehicle: saline 112 % of control | dose: 12.5 mg/kg/injection, schedule: Q01DX009 (ip), vehicle: saline 108 % of control

Cc1c(Cl)c(C)c(Cl)c(CCl)c1Cl
inactive: dose: 18.75 mg/kg/injection, schedule: Q04DX003 (ip), vehicle: saline sonified 95 % of control | dose: 37.5 mg/kg/injection, schedule: Q04DX003 (ip), vehicle: saline sonified 109 % of control | dose: 75.0 mg/kg/injection, schedule: Q04DX003 (ip), vehicle: saline sonified 109 % of control

O=C(CCl)N/N=C/c1ccccc1
inactive: [3] 106 % of control | dose: 50.0 mg/kg/injection, schedule: Q01DX009 (ip), vehicle: saline 97 % of control | [4] 107 % of control | dose: 100.0 mg/kg/injection, schedule: Q01DX009 (ip), vehicle: saline 95 % of control | [5] 111 % of control | dose: 200.0 mg/kg/injection, schedule: Q01DX009 (ip), vehicle: saline 96 % of control

CCO/C=C(\C#N)S(=O)(=O)/C(C#N)=C/OCC
inactive: dose: 100.0 mg/kg/injection, schedule: Q04DX002 (ip), vehicle: saline 108 % of control | dose: 200.0 mg/kg/injection, schedule: Q04DX002 (ip), vehicle: saline 101 % of control

COc1ccccc1C(C)c1cc2c(cc1OC)OCO2 (stereo unspecified)
inactive: [1] 100 % of control | [2] 101 % of control | dose: 200.0 mg/kg/injection, schedule: Q01DX005 (ip), vehicle: saline with Tween-80 93 % of control

CC1(C)CCC2(C(=O)O)CCC3(C)C(=CCC4C5(C)CCC(OC6OC(CO)C(O)C(OC7OC(CO)C(O)C(O)C7O)C6OC6OC(CO)C(O)C(O)C6O)C(C)(C)C5CCC43C)C2C1 (stereo unspecified)
inactive: dose: 3.75 mg/kg/injection, schedule: Q01DX005 (ip), vehicle: Klucel (hydroxypropylcellulose) (HPC) 102 % of control | dose: 7.5 mg/kg/injection, schedule: Q01DX005 (ip), vehicle: Klucel (hydroxypropylcellulose) (HPC) 100 % of control | dose: 15.0 mg/kg/injection, schedule: Q01DX005 (ip), vehicle: Klucel (hydroxypropylcellulose) (HPC) 88 % of control | dose: 30.0 mg/kg/injection, schedule: Q01DX005 (ip), vehicle: Klucel (hydroxypropylcellulose) (HPC) 100 % of control

O=C(CCl)OCCN1Cc2nc3sc4c(c3c(=O)n2CC1=O)CCCC4
inactive: [3] 97 % of control | [4] 94 % of control | [5] 112 % of control
